Results from patent publication US20170183318A1, “AMIDE COMPOUNDS, METHODS FOR PREPARATION, AND USE THEREOF AS AGENTS FOR THE TREATMENT AND PREVENTION OF DISEASES CAUSED BY RNA- AND/OR DNA-CONTAINING VIRUSES, AND CONCOMITANT DISEASES” (OBSCHESTVO S OGRANICHENNOI OTVETSTVENNOSTIYU …, priority 2014, published 2017).
Starred links: 1 amine or outer side, 2 acyl side, 3 side chain; linkers in the order of their positions; H or OH if unused. Residues, ends and D or L forms follow the SMILES beside them. Glutaryl = O=C(CCCC(=O)[*:2])[*:1]

test system: human virus hRSV; assay: Antiviral activity against mouse-adapted RS virus (body weight; viral titer in lungs titrated in Hep-2 cells); assay type: in vivo, mice; conditions: day 5; 10% lung suspension titrated in Hep-2 cells (TCID); compounds 30 mg/kg, Ribavirin 40 mg/kg
Protocol: Antiviral effectiveness of the chemical compounds against RSV in an experimental murine model in vivo was determined for human virus hRSV that was previously adapted to the growth in mouse lungs. The animals were infected with the virus at a dose of 0.5 log TCID50 intranasally under brief ether anesthesia in a volume of 0.05 ml/mouse. The studied compounds were administered orally once daily for 5 days according to the treatment regimen at a dose of 30 mg/kg. The first administration was made 24 hours after infection. Normal saline solution was administered to mice as placebo. Intact animals served as a negative control and were hold in a separate room under the same conditions as the experimental animals. Each experimental group comprised 12 animals.
The antiviral activity of the studied compounds was determined by the efficiency in the prevention of weight loss and by suppression of the reproduction of hRSV in the mouse lungs by measuring a viral titer in the experimental groups relative to the control on days 5 and 7 after infection.
In addition, the therapeutic action of the compounds of general formula I was determined by their ability to suppress the reproduction of hRSV in the mouse lungs on days 5 and 7 after infection. The viral titer was determined by the titration of a 10% lung suspension in Hep-2 cell culture. The result was registered 2 days after the incubation at 37° C. by TCID.

SMILES | hRSV in the lungs of mice, Day 5, lg [lg]
O=C(O)CCCC(=O)NCCc1cocn1 [Compound 124] | 2.46 ± 0.22

same assay, conditions: day 5; compounds 30 mg/kg, Ribavirin 40 mg/kg, orally once daily for 5 days; n = 6

SMILES | Body weight of the mice on day 5 after infection with hRSV (M ± SD)
O=C(O)CCCC(=O)NCCC1CCNCC1 [Compound 7] | 17.17 ± 0.26
O=C(O)CCCC(=O)NCCc1cocn1 [Compound 124] | 16.43 ± 0.26

same assay, conditions: day 7; 10% lung suspension titrated in Hep-2 cells (TCID); compounds 30 mg/kg, Ribavirin 40 mg/kg

SMILES | hRSV in the lungs of mice, Day 7, lg [lg]
O=C(O)CCCC(=O)NCCc1cocn1 [Compound 124] | 0.83 ± 0.37

same assay, conditions: day 7; compounds 30 mg/kg, Ribavirin 40 mg/kg, orally once daily for 5 days; n = 6

SMILES | Body weight of the mice on day 7 after infection with hRSV (M ± SD)
O=C(O)CCCC(=O)NCCC1CCNCC1 [Compound 7] | 18.53 ± 0.55
O=C(O)CCCC(=O)NCCc1cocn1 [Compound 124] | 16.37 ± 0.43

same assay, conditions: human respiratory syncytial virus, HEp-2, po, 120 h, read-out: Suppression of the reproduction of hRSV in the lungs of mice, Day 5, Δlg

SMILES | log reduction at 30 mg/kg
O=C(O)CCCC(=O)NCCc1cocn1 [Compound 124] | 2.14 ± 0.22

same assay, conditions: human respiratory syncytial virus, HEp-2, po, 168 h, read-out: Suppression of the reproduction of hRSV in the lungs of mice, Day 7, Δlg

SMILES | log reduction at 30 mg/kg
O=C(O)CCCC(=O)NCCc1cocn1 [Compound 124] | 2.97 ± 0.37

test system: not listed separately; assay: Rat model of nasopharyngitis induced by formalin (nasal mucosa changes, cell elements in nasal lavage); assay type: in vivo; conditions: Wistar rats, 18 mg/kg for 3 days, number of animals out of n = 10, control 0 of 20
Protocol: Nasopharyngitis was induced by intranasal administration of formalin to each nasal passage of rats.
The administration of formalin to the nasal passages of rats leads to the dissemination of inflammation to adjacent tissues, resulting in a clinical pattern similar to the symptoms of nasopharyngitis in a human.
After an acclimatization period, the following groups were formed: • intact animals administered intragastrically a physiological solution in an amount of 0.2 ml, without induction of nasopharyngitis; • a control group consisted of animals administered intragastrically a physiological solution in an amount of 0.2 ml for 3 days after induction of nasopharyngitis; and • animals administered the studied compounds at a dose of 18 mg/kg for 3 days after induction of nasopharyngitis.
Clinical observation of each animal was performed every day at least twice daily.
The caused pathology was characterized by hyperplasia, increased number of caliciform cells, pronounced infiltration of mononuclear cells and leucocytes, and mucus hyperproduction by submucosal glands.
After euthanasia, the inflammation pattern in the nasal passages and throat was studied in each group of animals. The nasal passages were washed with 5 mL of physiological solution and the score of cell elements were counted in 1 μL.

SMILES | Mucous membrane of nasal passages: Without changes (number of animals)
O=C(O)CCCC(=O)NCCC1CCNCC1 [Compound 7] | 6
O=C(O)CCCC(=O)NCCc1cc[nH]n1 [Compound 15] | 7
CC(NC(=O)C(Cc1cnc[nH]1)NC(=O)CCCC(=O)O)C(N)=O (stereo not drawn) [Compound 92] (Glutaryl-His-Ala-NH2; configuration not given here) | 6
NCCCC(=O)NCCCc1cccs1 [Compound 100] | 3
O=C(O)CCCC(=O)NCCc1cocn1 [Compound 124] | 7
O=C(O)CCCC(=O)NCCc1cn[nH]n1 [Compound 126] | 4
O=C(O)CCCC(=O)NCCc1cnccn1 [Compound 131] | 5

same assay, conditions: Wistar rats, 18 mg/kg for 3 days, number of animals out of n = 10, control 20 of 20

SMILES | Mucous membrane of nasal passages: Discharge mucus from the nasal passages (number of animals)
O=C(O)CCCC(=O)NCCC1CCNCC1 [Compound 7] | 4
O=C(O)CCCC(=O)NCCc1cc[nH]n1 [Compound 15] | 3
CC(NC(=O)C(Cc1cnc[nH]1)NC(=O)CCCC(=O)O)C(N)=O (stereo not drawn) [Compound 92] (Glutaryl-His-Ala-NH2; configuration not given here) | 4
NCCCC(=O)NCCCc1cccs1 [Compound 100] | 7
O=C(O)CCCC(=O)NCCc1cocn1 [Compound 124] | 3
O=C(O)CCCC(=O)NCCc1cn[nH]n1 [Compound 126] | 6
O=C(O)CCCC(=O)NCCc1cnccn1 [Compound 131] | 5

test system: herpes simplex virus belonging to antigenic type 2; assay: Murine model of experimental herpetic meningoencephalitis (mortality); assay type: in vivo, white outbred mice; conditions: Mus musculus, po, 336 h
Protocol: In the study, herpes simplex virus belonging to antigenic type 2 was used. White outbred mice weighing 7-8 g were infected i/c (intracerebrally) in a volume of 0.05 ml/mouse comprising a dose of 10LD50. The infectious dose of the virus that caused 100% mortality in mice was 10LD50. Each experimental group comprised 20 mice. Intact animals served as control and were hold in a separate room under the same conditions as the experimental animals. The antiviral activity of the compounds of general formula I was studied by oral administration of the compounds to infected mice once daily at a dose of 30 mg/kg/mouse 24, 48, 72, 96, and 120 hours after infection of the animals with the virus. The mice of the control group were administered placebo (0.2 mL of physiological solution) under the same conditions. The animals were monitored for 14 days after infection by registration the mouse death in the groups.
Each animal was subjected to once-daily observation. The observation included the assessment of general behavior and body condition of animals. The animals were handled according to the International Standards.
The activity of the compounds was evaluated by comparing mortality rates in the groups of animals administered a preparation and placebo.

SMILES | mortality at 30 mg/kg [%]
O=C(O)CCCC(=O)NCCC1CCNCC1 [Compound 7] | 20
O=C(O)CCCC(=O)NCCc1cc[nH]n1 [Compound 15] | 30
CC(NC(=O)C(Cc1cnc[nH]1)NC(=O)CCCC(=O)O)C(N)=O (stereo not drawn) [Compound 92] (Glutaryl-His-Ala-NH2; configuration not given here) | 25
NCCCC(=O)NCCCc1cccs1 [Compound 100] | 30
O=C(O)CCCC(=O)NCCc1cocn1 [Compound 124] | 40
O=C(O)CCCC(=O)NCCc1cn[nH]n1 [Compound 126] | 40
O=C(O)CCCC(=O)NCCc1cnccn1 [Compound 131] | 45
